This note sets out measurements from patent publication US12084472B2 (Ardelyx, Inc., priority 2015, dated 2024).

In the assay the target is T1, human TGR5 (Homo sapiens, UniProt Q8TDU6).
T1 construct: expressed in transfected cells; host or cells: HEK293
T1 sequence (Q8TDU6 1-330): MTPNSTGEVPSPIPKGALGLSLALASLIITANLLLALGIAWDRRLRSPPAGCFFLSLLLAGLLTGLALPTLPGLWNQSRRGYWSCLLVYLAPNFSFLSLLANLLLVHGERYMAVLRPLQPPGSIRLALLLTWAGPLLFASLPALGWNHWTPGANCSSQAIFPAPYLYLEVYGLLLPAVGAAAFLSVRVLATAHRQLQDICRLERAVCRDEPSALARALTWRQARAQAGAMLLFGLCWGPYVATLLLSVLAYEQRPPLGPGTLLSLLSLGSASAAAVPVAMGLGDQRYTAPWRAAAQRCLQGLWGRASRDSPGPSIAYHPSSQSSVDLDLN
As to the kind of experiment: Cell-based TGR5 assay (cAMP generation, HTRF). As to conditions: HEK293 cells stably transfected with human TGR5; cAMP by HTRF; 30 minutes at 37° C.; read-out: pEC50 Human TGR5 (converted). In a few lines:
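First, compounds in 3-fold serial dilution were placed in HBSS with 10 mM HEPES pH 7.4 and 0.5 mM IBMX. Next, human TGR5-expressing HEK293 cells were added and incubated 30 min at 37° C. Finally, cAMP was detected by HTRF and pEC50 derived by logistic fitting.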
A general note: Time-resolved FRET reads energy transfer from a long-lived donor to a nearby acceptor.
Consider `CN(C[C@H](O)[C@@H](O)[C@H](O)[C@H](O)CO)C(=O)c1ccc(CSc2ccc(Cl)c(COC3(c4cnccc4-c4ccccc4OC4CC4)CC3)c2)cc1` [Compound I-685, 4-({[4-chloro-3-({1-[4-(2-cyclopropoxyphenyl)pyridin-3-yl]cyclopropoxy}methyl)phenyl]sulfanyl}methyl)-N-methyl-N-[(2S,3R,4R,5R)-2,3,4,5,6-pentahydroxyhexyl]benzamide], for which the EC50 was less than 100 nM. `CN(Cc1cc(Cl)ccc1Cl)C1(c2cnccc2-c2ccccc2OC2CC2)CC1` [Compound I-58, 1-[4-(2-cyclopropoxyphenyl)pyridin-3-yl]-N-[(2,5-dichlorophenyl)methyl]-N-1-amine]: the EC50 was 1260 to 10000 nM.

As to `CN(C[C@H](O)[C@@H](O)[C@H](O)[C@H](O)CO)C(=O)CCN(CCC(=O)N(C)C[C@H](O)[C@@H](O)[C@H](O)[C@H](O)CO)C(=O)CCCCc1cc(Cl)c(CNC2(c3cnccc3-c3ccccc3OC3CC3)CC2)cc1Cl` [Compound I-171, 5-{2,5-dichloro-4-[({1-[4-(2-cyclopropoxyphenyl)pyridin-3-yl]cyclopropyl}amino)methyl]phenyl}-N,N-bis(2-{methyl[(2S,3R,4R,5R)-2,3,4,5,6-pentahydroxyhexyl]carbamoyl}ethyl) pentanamide], the EC50 is 1260 to 10000 nM. For `CC(CCCCNC(=O)N[C@@H](CO)[C@@H](O)[C@H](O)[C@H](O)CO)c1ccc(Cl)c(CNC2(c3cnccc3-c3ccccc3OC3CC3)CC2)c1` (stereo partly drawn) [Compound I-266, 1-(5-{4-chloro-3-[({1-[4-(2-cyclopropoxyphenyl)pyridin-3-yl]cyclopropyl}amino)methyl]phenyl}hexyl)-3-[(2S,3R,4S,5R)-1,3,4,5,6-pentahydroxyhexan-2-yl]urea], the EC50 is less than 100 nM. With `CN(CCCCc1cc(Cl)c(COC2(c3cnccc3-c3ccccc3OC3CC3)CC2)cc1Cl)C(=O)[C@@H](O)[C@@H](O)[C@H](O)[C@@H](O)CN1CCOCC1` (stereo in doubt) [Compound I-189, (2S,3S,4R,5S)-N-{4-[2,5-dichloro-4-({1-[4-(2-cyclopropoxyphenyl)pyridin-3-yl]cyclopropoxy}methyl)phenyl]butyl}-2,3,4,5-tetrahydroxy-N-methyl-6-(morpholin-4-yl)hexanamide], the EC50 was less than 100 nM.

As for `CN(C)S(=O)(=O)CCN(C[C@H](O)[C@@H](O)[C@H](O)[C@H](O)CO)C(=O)CCCSc1ccc(Cl)c(COC2(c3cnccc3-c3ccccc3OC3CC3)CC2)c1` [Compound I-693, 4-{[4-chloro-3-({1-[4-(2-cyclopropoxyphenyl)pyridin-3-yl]cyclopropoxy}methyl)phenyl]sulfanyl}-N-[2-(dimethylsulfamoyl)ethyl]-N-[(2S,3R,4R,5R)-2,3,4,5,6-pentahydroxyhexyl]butanamide], the EC50 was 126 to 1000 nM. Consider `CCS(=O)(=O)CCN(CCCCCc1cc(Cl)c(COC2(c3cnccc3-c3ccccc3OC3CC3)CC2)cc1Cl)C(=O)[C@@H](O)[C@@H](O)[C@H](O)[C@@H](O)CO` (stereo in doubt) [Compound I-227, (2S,3S,4R,5S)-N-{5-[2,5-dichloro-4-({1-[4-(2-cyclopropoxyphenyl)pyridin-3-yl]cyclopropoxy}methyl)phenyl]pentyl}-N-[2-(ethanesulfonyl)ethyl]-2,3,4,5,6-pentahydroxyhexanamide], for which the EC50 is less than 100 nM. Take `CCOC(=O)NCCCN(CCCCSc1ccc(Cl)c(CNC2(c3cnccc3-c3ccccc3OC3CC3)CC2)c1)C(=O)[C@@H](O)[C@@H](O)[C@H](O)[C@@H](O)CO` [Compound I-574, ethyl N-{3-[(2S,3S,4R,5S)-N-[4-({4-chloro-3-[({1-[4-(2-cyclopropoxyphenyl)pyridin-3-yl]cyclopropyl}amino)methyl]phenyl}sulfanyl)butyl]-2,3,4,5,6-pentahydroxyhexanamido]propyl}carbamate]: the EC50 is less than 100 nM.

In the case of `Cc1ccc(SCCCCC(=O)N(C)C[C@H](O)[C@@H](O)[C@H](O)[C@H](O)CO)nc1CNC1(c2cnccc2-c2ccccc2OC2CC2)CC1` [Compound I-495, 5-([6-[([1-[4-(2-Cyclopropoxyphenyl)pyridin-3-yl]cyclopropyl]amino)methyl]-5-methylpyridin-2-yl]sulfanyl)-N-methyl-N-[(2S,3R,4R,5R)-2,3,4,5,6-pentahydroxyhexyl]pentanamide], the EC50 was 126 to 1000 nM. The same measure for `Cc1ccc(S(=O)(=O)N(C)CCCCNC(=O)NC[C@H](O)[C@@H](O)[C@H](O)[C@H](O)CO)cc1COC1(c2cnccc2-c2ccccc2OC2CC2)CC1` [Compound I-479, 1-{4-[N-methyl3-({1-[4-(2-cyclopropoxyphenyl)pyridin-3-yl]cyclopropoxy}methyl)-4-methylbenzenesulfonamido]butyl}-3-[(2S,3R,4R,5R)-2,3,4,5,6-pentahydroxyhexyl]urea]: less than 100 nM; for `O=C(NCCCCCSc1ccc(Cl)c(COC2(c3cnccc3-c3ccccc3OC3CC3)CC2)c1)NCCCCNC(=O)NC[C@H](O)[C@@H](O)[C@H](O)[C@H](O)CO` [Compound I-627]: less than 100 nM; for `CN(CCOCCNC(=O)N[C@@H](CO)[C@@H](O)[C@H](O)[C@H](O)CO)S(=O)(=O)c1ccc(Cl)c(COC2(c3cnccc3-c3ccccc3OC3CC3)CC2)c1` (stereo in doubt) [Compound I-406, 1-(2-{2-[N-methyl4-chloro-3-({1-[4-(2-cyclopropoxyphenyl)pyridin-3-yl]cyclopropoxy}methyl)benzenesulfonamido]ethoxy}ethyl)-3-[(2S,3R,4S,5R)-1,3,4,5,6-pentahydroxyhexan-2-yl]urea]: less than 100 nM. The same measure for `CC(=O)N1CCCN(S(=O)(=O)c2ccc(Cl)c(COC3(c4cnccc4-c4ccccc4OC4CC4)CC3)c2)CC1` [Compound I-732, 1-(4-[[4-chloro-3-([1-[4-(2-cyclopropoxyphenyl)pyridin-3-yl]cyclopropoxy]methyl)benzene]sulfonyl]-1,4-diazepan-1-yl)ethan-1-one]: less than 100 nM; for `CC(CCCC(=O)N(CC(N)=O)C[C@H](O)[C@@H](O)[C@H](O)[C@H](O)CO)c1ccc(Cl)c(CNC2(c3cnccc3-c3ccccc3OC3CC3)CC2)c1` (stereo partly drawn) [Compound I-332, N-(carbamoylmethyl)-5-{4-chloro-3-[({1-[4-(2-cyclopropoxyphenyl)pyridin-3-yl]cyclopropyl}amino)methyl]phenyl}-N-[(2S,3R,4R,5R)-2,3,4,5,6-pentahydroxyhexyl]hexanamide]: less than 100 nM; for `COc1ccccc1-c1ccncc1C1(NCc2cc(Cl)c(CCCCC(=O)NC[C@H](O)[C@@H](O)[C@H](O)[C@H](O)CO)cc2Cl)CC1` [Compound I-133, 5-{2,5-dichloro-4-[({1-[4-(2-methoxyphenyl)pyridin-3-yl]cyclopropyl}amino)methyl]phenyl}-N-[(2S,3R,4R,5R)-2,3,4,5,6-pentahydroxyhexyl]pentanamide]: 126 to 1000 nM. With `CSc1ccc(C)c(CNC2(c3cnccc3-c3ccccc3OC3CC3)CC2)n1` [Compound I-25, 1-[4-(2-cyclopropoxyphenyl)pyridin-3-yl]-N-{[3-methyl-6-(methylsulfanyl)pyridin-2-yl]methyl}cyclopropan-1-amine], the EC50 is less than 100 nM.
